# Laboratory results as given in ChEMBL document CHEMBL6153106, “Synergistic Anti-Ferroptosis with a Minimalistic, Peroxide-Triggered Carbon Monoxide Donor for Parkinson's Disease” (J Med Chem, 2025).
# Active and inactive are the calls of the source. No cut-off for these calls is given here.
# Columns and labels:
# [1] = Induction of ONOO-induced CO release in PBS buffer at pH 7.4 at 100 uM by HPLC analysis; assay type: functional
# [2] = Induction of H2O2-induced CO release in PBS buffer at pH 7.4 at 100 uM by HPLC analysis; assay type: functional
# Mus musculus [3] = experiment: Anti-parkinson activity in MPTP-induced male C57BL/6J mouse model assessed as reduction in DMT1 level in midbrain at 6 mg/kg, iv pretreated with compound for 1 to 11 days followed by MPTP-induction for 1 to 5 days and measured on day 21; assay type: functional, organism-based; details: time 21.0 day
# [4] = Induction of ONOO-induced CO release in PBS buffer at pH 7.4 at 100 uM in presence of PdCl2 by fluorescence based analysis; assay type: functional
# Mus musculus [5] = experiment: Anti-parkinson activity in MPTP-induced male C57BL/6J mouse model assessed as increase in TH level in substantia nigra pars compacta at 6 mg/kg, iv pretreated with compound for 1 to 11 days followed by MPTP-induction for 1 to 5 days and measured on day 26 by immunofluorescence analysis; assay type: functional, organism-based; details: time 26.0 day
# Mus musculus [6] = experiment: Anti-parkinson activity in MPTP-induced male C57BL/6J mouse model assessed as increase in mean speed at 6 mg/kg, iv pretreated with compound for 1 day followed by MPTP-induction for 2 to 9 days and measured after 10 days by open field test; assay type: functional, organism-based; details: time 10.0 day
# Mus musculus [7] = experiment: Anti-parkinson activity in MPTP-induced male C57BL/6J mouse model assessed as decrease in descending time at 6 mg/kg, iv pretreated with compound for 1 to 11 days followed by MPTP-induction for 1 to 5 days and measured on day 24 by pole test; assay type: functional, organism-based; details: time 24.0 day
# [8] = Induction of ONOO-induced CO release in PBS buffer at pH 7.4 assessed as retention time at 100 uM by gas chromatography analysis; assay type: functional
# SH-SY5Y [9] = experiment: Inhibition of ferroptosis in MPP+-induced human SH-SY5Y cells assessed as increase in GPX4 level by Western blot analysis; assay type: functional, cell-based
# Mus musculus [10] = experiment: Anti-parkinson activity in MPTP-induced male C57BL/6J mouse model assessed as increase in total number of fecal pellets production at 6 mg/kg, iv pretreated with compound for 1 day followed by MPTP-induction for 2 to 9 days and measured after 10 days by elevated plus maze test; assay type: functional, organism-based; details: time 10.0 day
# SH-SY5Y [11] = experiment: Inhibition of ferroptosis in MPP+-induced human SH-SY5Y cells assessed as decrease in intracellular ONOO release by measuring fluorescence intensity at 10 uM pretreated with MPP+ for 20 hrs followed by compound treatment for 2 hrs by HK-green-4I probe based confocal microscopic analysis; assay type: functional, cell-based
# [12] = Induction of H2O2-induced CO release in PBS buffer at pH 7.4 assessed as retention time at 100 uM by gas chromatography analysis; assay type: functional
# Mus musculus [13] = experiment: Anti-parkinson activity in MPTP-induced male C57BL/6J mouse model assessed as reduction in MDA level in midbrain at 6 mg/kg, iv pretreated with compound for 1 to 11 days followed by MPTP-induction for 1 to 5 days and measured on day 26 by Western blot analysis; assay type: functional, organism-based; details: time 26.0 day
# [14] = Induction of ONOO-induced CO release in PBS buffer at pH 7.4 assessed as increase in fluorescence intensity at 100 uM incubated for 30 min by gas detector analysis; assay type: functional
# SH-SY5Y [15] = experiment: Inhibition of ferroptosis in MPP+-induced human SH-SY5Y cells assessed as reduction in 4-HNE level by Western blot analysis; assay type: functional, cell-based
# SH-SY5Y [16] = experiment: Inhibition of ferroptosis in MPP+-induced human SH-SY5Y cells assessed as reduction in DMT1 level by Western blot analysis; assay type: functional, cell-based
# Mus musculus [17] = experiment: Anti-parkinson activity in MPTP-induced male C57BL/6J mouse model assessed as increase in latency period at 6 mg/kg, iv pretreated with compound for 1 to 11 days followed by MPTP-induction for 1 to 5 days and measured on day 24 by rotarod test; assay type: functional, organism-based; details: time 24.0 day
# Mus musculus [18] = experiment: Anti-parkinson activity in MPTP-induced male C57BL/6J mouse model assessed as reduction in 4-HNE level in midbrain at 6 mg/kg, iv pretreated with compound for 1 to 11 days followed by MPTP-induction for 1 to 5 days and measured on day 26 by Western blot analysis; assay type: functional, organism-based; details: time 26.0 day
# Mus musculus [19] = experiment: Anti-parkinson activity in MPTP-induced male C57BL/6J mouse model assessed as decrease in total alpha-synuclein level in midbrain at 6 mg/kg, iv pretreated with compound for 1 to 11 days followed by MPTP-induction for 1 to 5 days and measured on day 26 by Western blot analysis; assay type: functional, organism-based; details: time 26.0 day
# Mus musculus [20] = experiment: Anti-parkinson activity in MPTP-induced male C57BL/6J mouse model assessed as decrease in […] expression in midbrain at 6 mg/kg, iv pretreated with compound for 1 to 11 days followed by MPTP-induction for 1 to 5 days and measured on day 26 by Western blot analysis; assay type: functional, organism-based; details: time 26.0 day
# Mus musculus [21] = experiment: Anti-parkinson activity in MPTP-induced male C57BL/6J mouse model assessed as reduction in free ferrous iron level in midbrain at 6 mg/kg, iv pretreated with compound for 1 to 11 days followed by MPTP-induction for 1 to 5 days and measured on day 21; assay type: functional, organism-based; details: time 21.0 day
# Mus musculus [22] = experiment: Anti-parkinson activity in MPTP-induced male C57BL/6J mouse model assessed as increase in total distance traveled at 6 mg/kg, iv pretreated with compound for 1 day followed by MPTP-induction for 2 to 9 days and measured after 10 days by open field test; assay type: functional, organism-based; details: time 10.0 day
# Mus musculus [23] = experiment: Anti-parkinson activity in MPTP-induced male C57BL/6J mouse model assessed as reduction in TFRC level in midbrain at 6 mg/kg, iv pretreated with compound for 1 to 11 days followed by MPTP-induction for 1 to 5 days and measured on day 21; assay type: functional, organism-based; details: time 21.0 day
# Mus musculus [24] = experiment: Anti-parkinson activity in MPTP-induced male C57BL/6J mouse model assessed as increase in TH expression in substantia nigra pars compacta at 6 mg/kg, iv pretreated with compound for 1 to 11 days followed by MPTP-induction for 1 to 5 days and measured on day 26 by immunostaining based analysis; assay type: functional, organism-based; details: time 26.0 day
# [25] = Induction of ONOO-induced CO release in PBS buffer at pH 7.4 at 100 uM by gold-standard CO-myoglobin assay; assay type: functional
# Mus musculus [26] = experiment: Anti-parkinson activity in MPTP-induced male C57BL/6J mouse model assessed as increase in frequency of open arms entries at 6 mg/kg, iv pretreated with compound for 1 day followed by MPTP-induction for 2 to 9 days and measured after 10 days by elevated plus maze test; assay type: functional, organism-based; details: time 10.0 day
# Mus musculus [27] = experiment: Anti-parkinson activity in MPTP-induced male C57BL/6J mouse model assessed as increase in TH level in substantia nigra pars compacta at 6 mg/kg, iv pretreated with compound for 1 to 11 days followed by MPTP-induction for 1 to 5 days and measured on day 26 by Western blot analysis; assay type: functional, organism-based; details: time 26.0 day
# SH-SY5Y [28] = experiment: Inhibition of ferroptosis in MPP+-induced human SH-SY5Y cells assessed as induction of CO release by measuring increase in fluorescent intensity at 10 uM pretreated with MPP+ for 20 hrs followed by compound treatment for 30 mins by COP490 probe based confocal microscopic analysis; assay type: functional, cell-based
# Mus musculus [29] = experiment: Anti-parkinson activity in MPTP-induced male C57BL/6J mouse model assessed as reduction in NCOA4 level in midbrain at 6 mg/kg, iv pretreated with compound for 1 to 11 days followed by MPTP-induction for 1 to 5 days and measured on day 21; assay type: functional, organism-based; details: time 21.0 day
# Mus musculus [30] = experiment: Anti-parkinson activity in MPTP-induced male C57BL/6J mouse model assessed as decrease in phosphorylated alpha-synuclein level in midbrain at 6 mg/kg, iv pretreated with compound for 1 to 11 days followed by MPTP-induction for 1 to 5 days and measured on day 26 by Western blot analysis; assay type: functional, organism-based; details: time 26.0 day
# [31] = Induction of H2O2-induced CO release in PBS buffer at pH 7.4 assessed as increase in fluorescence intensity at 100 uM incubated for 30 min by gas detector analysis; assay type: functional
# Mus musculus [32] = experiment: Anti-parkinson activity in MPTP-induced male C57BL/6J mouse model assessed as increase in SLC7A11 expression in midbrain at 6 mg/kg, iv pretreated with compound for 1 to 11 days followed by MPTP-induction for 1 to 5 days and measured on day 26 by Western blot analysis; assay type: functional, organism-based; details: time 26.0 day
# SH-SY5Y [33] = experiment: Inhibition of ferroptosis in MPP+-induced human SH-SY5Y cells assessed as decrease in intracellular Fe2+ release by measuring fluorescence intensity at 10 uM pretreated with MPP+ for 20 hrs followed by compound treatment for 2 hrs by FerroOrange probe based confocal microscopic analysis; assay type: functional, cell-based
# Mus musculus [34] = experiment: Anti-parkinson activity in MPTP-induced male C57BL/6J mouse model assessed as improvement in hindlimb clasping reflex at 6 mg/kg, iv pretreated with compound for 1 to 11 days followed by MPTP-induction for 1 to 5 days and measured on day 24 by hindlimb clasping test; assay type: functional, organism-based; details: time 24.0 day
# Mus musculus [35] = experiment: Anti-parkinson activity in MPTP-induced male C57BL/6J mouse model assessed as increase in distance traveled in open arms at 6 mg/kg, iv pretreated with compound for 1 day followed by MPTP-induction for 2 to 9 days and measured after 10 days by elevated plus maze test; assay type: functional, organism-based; details: time 10.0 day
# Mus musculus [36] = experiment: Anti-parkinson activity in MPTP-induced male C57BL/6J mouse model assessed as increase in GPX4 expression in substantia nigra pars compacta at 6 mg/kg, iv pretreated with compound for 1 to 11 days followed by MPTP-induction for 1 to 5 days and measured on day 26 by immunostaining based analysis; assay type: functional, organism-based; details: time 26.0 day
# Mus musculus [37] = experiment: Anti-parkinson activity in MPTP-induced male C57BL/6J mouse model assessed as increase in GPX4 expression in midbrain at 6 mg/kg, iv pretreated with compound for 1 to 11 days followed by MPTP-induction for 1 to 5 days and measured on day 26 by Western blot analysis; assay type: functional, organism-based; details: time 26.0 day
compound,measurement,setting,value
CC(=O)c1cc(F)ccc1O,Activity,[1],Active
same,Activity,[2],Active
COC(=O)C(=O)OC1(C)C(=O)Oc2ccc(F)cc21 (configuration not stated),Activity,Mus musculus [3],Active
same,Activity,[4],Weak_effect
same,Activity,Mus musculus [5],Active
same,Activity,Mus musculus [6],Active
same,Activity,Mus musculus [7],Active
same,Retention time,[8],1.96 min
same,inhibition,SH-SY5Y [9],Active
same,Activity,Mus musculus [10],Active
same,inhibition,SH-SY5Y [11],Active
same,Retention time,[12],3.86 min
same,Activity,Mus musculus [13],Active
same,Activity,[14],Active
same,inhibition,SH-SY5Y [15],Active
same,inhibition,SH-SY5Y [16],Active
same,Activity,Mus musculus [17],Active
same,Activity,Mus musculus [18],Active
same,Activity,Mus musculus [19],Active
same,Activity,Mus musculus [20],Active
same,Activity,Mus musculus [21],Active
same,Activity,Mus musculus [22],Active
same,Activity,Mus musculus [23],Active
same,Activity,Mus musculus [24],Active
same,Activity,[25],Active
same,Activity,Mus musculus [26],Active
same,Activity,Mus musculus [27],Active
same,inhibition,SH-SY5Y [28],Active
same,Activity,Mus musculus [29],Active
same,Activity,Mus musculus [30],Active
same,Activity,[31],Active
same,Activity,Mus musculus [32],Active
same,inhibition,SH-SY5Y [33],Active
same,Activity,Mus musculus [34],Active
same,Activity,Mus musculus [35],Active
same,Activity,Mus musculus [36],Active
same,Activity,Mus musculus [37],Active
